Measured values taken from patent publication US11110102B2, “Antifungal agents used in combination” (Scynexis, Inc., priority 2017, dated 2021).
Where “and” joins values, the source holds several entries; their conditions need not be identical. Identical values can stand only once.

Tests used:
Test in all cases: Checkerboard combination MIC testing
Format in all cases: cell-based, Aspergillus fumigatus
[1] = system: A. fumigatus MRL #28500; conditions: read at 48 hours, duplicate
Description: (§1) To determine the type of interaction between a representative compound of the enfumafungin derivatives (SCY-078) with several antifungal agents against Aspergillus fumigatus, the most frequent mold causing invasive disease in humans, the checkerboard method was used. The citrate salt of the compound was used in the studies.
(§2) The checkerboard method involves the determination of percent growth inhibition of fungal cells in the presence of different combinations of drugs. Percent growth inhibition is calculated relative to growth in control wells which contain only cells and no drug. The assay was performed in 96-well microplates in which each row and each column contained twofold serial dilutions of drug A and drug B at concentrations ranging from 0 to slightly higher than their minimum inhibitory concentration (MIC). […] Then the inoculum was added to each well and the growth was evaluated after 48 hrs incubation to determine the first well in which growth was inhibited. The checkerboard-based determination of MICs of antifungal agents in combination was followed by further analysis employing the nonparametric fractional inhibitory concentration index (FICI), which is defined by the following equation:
(§3) [formula] where MIC-A and MIC-B are the MICs of drugs A and B, respectively.
(§4) Each drug was initially diluted in either sterile, distilled water or in DMSO, depending on whether the drug was water-soluble or water-insoluble, respectively.
(§5) Stock solution of SCY-078 was prepared in DMSO at 200 times the concentration desired for use in the drug plates. Serial dilutions of stock solution were conducted in DMSO to obtain eleven 2-fold dilutions of the drug. The SCY-078 solution was then diluted to 4 times the desired concentration in RPMI-1640 medium so that the DMSO would not limit growth of the organism and so that the quantity of DMSO was the same for every dilution.
(§6) Two 96-well plates are needed to conduct a combination test. Using a multichannel pipette, 50 μl of the lowest concentration of the first drug (Drug A) was added to each well of column 1 of the first plate (plate A) and column 1 of the second plate (plate B; rows A-D). Then, 50 μl of the next highest working dilution of Drug A was added to each well in column 2, continuing with dilutions until all columns 1-11 were filled. Column 12 was left empty. 50 μl of the lowest concentration of Drug B was added to each well in Row D of plate B. 50 μl of the next highest working dilution of Drug B was added to each well in row C of plate B, continuing with dilutions until all rows through row B of plate A were filled.
(§7) Following the above, 100 μl of organism inoculum was added to every well. The plates were then incubated for 48 hours and visually read after incubation.
(§8) The objective of the study was to determine whether the combination of SCY-078 with voriconazole, isavuconazole, or amphotericin B would result in a combined in vitro antifungal activity exceeding the sum of the activities of each drug alone. Combination MIC testing was performed using the checkerboard assay described above.
A. fumigatus 28500 has a CYP51 mutation at F46Y.
(§9) Initial MIC determinations of the individual antifungals were performed according to the Clinical and Laboratory Standards Institute (CLSI) M38-A2 standard for the susceptibility testing of filamentous fungi.
(§10) Combination MIC testing was performed using a checkerboard test method according to the Center for Medical Mycology SOP A11.3. The checkerboard combination test method is a modification of the microdilution antifungal susceptibility test wherein two test compounds are combined in varying concentrations to determine whether they have synergistic, antagonistic, or no effect on the respective MIC values.
Antifungals were serially diluted two-fold in RPMI medium to produce eleven concentrations each and were combined in wells of a microtiter plate. Two rows consisting of serial dilutions of each individual drug were included. […]

[2] = system: A. fumigatus MRL #20438; conditions: A. fumigatus MRL 20438 (wild-type), read at 48 hours, duplicate
Description: as §1, §2, §3, §4, §5, §6, §7, §8, §9, §10
(§11) Antifungals were serially diluted two-fold in RPMI medium to produce eleven concentrations each and were combined in wells of a microtiter plate. Two rows consisting of serial dilutions of each individual drug were included. All combination testing was conducted in duplicate. […]

[3] = system: A. fumigatus MRL #28382; conditions: A. fumigatus MRL 28382 (wild-type), read at 48 hours, duplicate
Description: as §1, §2, §3, §4, §5, §6, §7, §8, §9, §10, §11

[4] = system: A. fumigatus MRL #28401; conditions: A. fumigatus MRL 28401 (wild-type), read at 48 hours, duplicate
Description: as §1, §2, §3, §4, §5, §6, §7, §8, §9, §10, §11

[5] = system: A. fumigatus MRL #28378; conditions: A. fumigatus MRL 28378 (wild-type), read at 48 hours, duplicate
Description: as §1, §2, §3, §4, §5, §6, §7, §8, §9, §10, §11

[6] = system: A. fumigatus MRL #28383; conditions: A. fumigatus MRL 28383 (azole-resistant), read at 48 hours, duplicate
Description: as §1, §2, §3, §4, §5, §6, §7, §8, §9, §10, §11

[7] = SCY-078 combined with amphotericin B
[8] = drug alone, SCY-078/amphotericin B test
[9] = SCY-078 combined with voriconazole
[10] = Aspergillus fumigatus, SCY078, 48 h, drug alone, SCY-078/voriconazole test, read-out: MIC Alone

C[C@@H]1[C@H](O)[C@@H](C)/C=C/C=C/C=C/C=C/C=C/C=C/C=C/[C@H](O[C@@H]2O[C@H](C)[C@@H](O)[C@H](N)[C@@H]2O)C[C@@H]2O[C@](O)(C[C@@H](O)C[C@@H](O)[C@H](O)CC[C@@H](O)C[C@@H](O)CC(=O)O[C@H]1C)C[C@H](O)[C@H]2C(=O)O [Amphotericin B, amphotericin B]
MIC in Combination ([1]; A. fumigatus MRL 28500 (azole-resistant, CYP51 F46Y), SCY-078 combined with amphotericin B): 1 µg/mL | MIC Alone ([1]; A. fumigatus MRL 28500 (azole-resistant, CYP51 F46Y), drug alone, SCY-078/amphotericin B test): 4 µg/mL | MIC in Combination [2, 7]: 0.5 µg/mL | MIC Alone [2, 8]: 4 µg/mL | MIC in Combination [3, 7]: 1 µg/mL and 0.5 µg/mL | MIC Alone [3, 8]: 4 µg/mL | MIC in Combination [4, 7]: 1 µg/mL and 0.5 µg/mL | MIC Alone [4, 8]: 4 µg/mL | MIC in Combination [5, 7]: 0.5 µg/mL | MIC Alone [5, 8]: 2 µg/mL | MIC in Combination [6, 7]: 4 µg/mL and 2 µg/mL | MIC Alone [6, 8]: 4 µg/mL and 2 µg/mL

C[C@@H](c1ncncc1F)[C@](O)(Cn1cncn1)c1ccc(F)cc1F [Voriconazole, voriconazole]
MIC in Combination ([1]; A. fumigatus MRL 28500 (azole-resistant, CYP51 F46Y), SCY-078 combined with voriconazole): >16 µg/mL | MIC ([1]; Aspergillus fumigatus, SCY078, 48 h, read-out: MIC Alone, A. fumigatus MRL 28500 (azole-resistant, CYP51 F46Y), drug alone, SCY-078/voriconazole test): > 16 µg/mL | MIC in Combination [2, 9]: 0.25 µg/mL | MIC [2, 10]: 1 µg/mL | MIC in Combination [3, 9]: 0.125 µg/mL and 0.25 µg/mL | MIC [3, 10]: 0.5 µg/mL | MIC in Combination [4, 9]: 0.5 µg/mL | MIC [4, 10]: 2 µg/mL | MIC Alone ([5]; drug alone, SCY-078/voriconazole test): 0.25 µg/mL | MIC [5, 10]: 0.5 µg/mL | MIC in Combination [6, 9]: >16 µg/mL | MIC [6, 10]: > 16 µg/mL
